Test results reported in ChEMBL document CHEMBL1268970, “Development of novel inhibitors targeting HIF-1α towards anticancer drug discovery” (Bioorg Med Chem Lett, 2010).
Activity calls are given as the source filed them. The rule behind the calls is not given here.

What was measured:
[1] = biological target: T1, Hypoxia-inducible factor 1-alpha (Homo sapiens, UniProt Q16665); assay: Inhibition of HIF1alpha in human U251 cells under normoxic condition by luciferase reporter gene assay; format: cell-based, U-251
Target sequence in this assay (Q16665 whole entry): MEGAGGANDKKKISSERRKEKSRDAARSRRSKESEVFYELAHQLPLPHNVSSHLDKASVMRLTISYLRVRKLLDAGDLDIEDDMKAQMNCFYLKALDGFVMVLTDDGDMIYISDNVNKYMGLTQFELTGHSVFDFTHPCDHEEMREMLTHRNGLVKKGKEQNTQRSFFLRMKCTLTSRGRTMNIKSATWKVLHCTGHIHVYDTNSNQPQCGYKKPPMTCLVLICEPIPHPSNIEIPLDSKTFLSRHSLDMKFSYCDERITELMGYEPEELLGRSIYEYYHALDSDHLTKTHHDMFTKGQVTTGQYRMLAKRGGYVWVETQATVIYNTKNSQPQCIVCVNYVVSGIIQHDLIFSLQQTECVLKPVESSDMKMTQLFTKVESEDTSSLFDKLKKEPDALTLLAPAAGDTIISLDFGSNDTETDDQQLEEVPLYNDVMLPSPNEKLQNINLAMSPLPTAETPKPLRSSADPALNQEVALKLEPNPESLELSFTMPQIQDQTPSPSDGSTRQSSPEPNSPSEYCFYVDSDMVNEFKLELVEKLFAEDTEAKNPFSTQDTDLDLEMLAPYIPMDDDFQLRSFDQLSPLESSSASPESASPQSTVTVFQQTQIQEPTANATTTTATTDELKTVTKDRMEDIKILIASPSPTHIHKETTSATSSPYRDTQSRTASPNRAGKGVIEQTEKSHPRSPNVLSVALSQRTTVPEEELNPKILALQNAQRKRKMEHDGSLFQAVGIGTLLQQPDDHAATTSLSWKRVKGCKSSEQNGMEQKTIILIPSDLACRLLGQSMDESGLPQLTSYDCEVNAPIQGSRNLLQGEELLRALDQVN

[2] = biological target: T1, Hypoxia-inducible factor 1-alpha; assay: Inhibition of HIF1alpha in human U251 cells under hypoxic condition by luciferase reporter gene assay; format: cell-based, U-251
Target sequence in this assay (Q16665 whole entry): as above

[3] = system: DU-145; assay: Antiproliferative activity against human DU145 cells by [3H]thymidine incorporation assay; format: functional, cell-based
[4] = system: PC-3; assay: Antiproliferative activity against human PC3 cells by [3H]thymidine incorporation assay; format: functional, cell-based
[5] = biological target: T1, Hypoxia-inducible factor 1-alpha; assay: Inhibition of HIF1-alpha-mediated VEGF mRNA expression in human PC3 cells under hypoxic condition by RT-PCR analysis; format: cell-based; settings: PC-3
Target sequence in this assay (Q16665 whole entry, looked up): as the sequence (Q16665 whole entry) above

[6] = system: HUVEC; assay: Antiangiogenic activity in HUVEC assessed as inhibition of tube formation; format: functional, cell-based; settings: Homo sapiens
[7] = system: PANC-1; assay: Antiproliferative activity against human PANC1 cells by [3H]thymidine incorporation assay; format: functional, cell-based
[8] = system: PC-3; assay: Antitumor activity against human PC3 cells xenografted in SCID mouse assessed as tumor growth inhibition at 50 mg/kg, po BID for 19 days measured on day 20; format: functional, organism-based; parameters: dose 50 mg/kg
[9] = system: PC-3; assay: Inhibition of HIF1alpha expression in human PC3 cells by Western blot analysis; format: functional, cell-based
[10] = system: HCT-116; assay: Antiproliferative activity against human HCT116 cells by [3H]thymidine incorporation assay; format: functional, cell-based
[11] = Antiproliferative activity against human WI38 cells by [3H]thymidine incorporation assay; format: cell-based; settings: WI-38
[12] = system: Mus musculus; assay: Toxicity in SCID mouse xenografted with human PC3 cells assessed as weight loss at 50 mg/kg, po BID for 19 days measured on day 25; format: organism-based, PC-3; parameters: dose 50 mg/kg, route oral; settings: in vivo, 456 h
[13] = system: MRC5; assay: Antiproliferative activity against human MRC5 cells by [3H]thymidine incorporation assay; format: cell-based
[14] = system: OVCAR-3; assay: Antiproliferative activity against human OVCAR-3 cells by [3H]thymidine incorporation assay; format: functional, cell-based; settings: OVCAR-3, 3 h
[15] = system: U-251; assay: Antiproliferative activity against human U251 cells by [3H]thymidine incorporation assay; format: functional, cell-based
[16] = system: U-251; assay: Inhibition of HIF1alpha expression in human U251 cells by Western blot analysis; format: functional, cell-based

Row | Structure (SMILES) | IC50 [1] | IC50 [2] | also measured
1 | C=CCOc1cc(C(F)(F)F)nc(-c2ccc(NC(=O)CCl)cn2)n1 | 30 µM | 2 µM | 
2 | COc1cc(C(F)(F)F)nc(-c2ccc(N)cn2)n1 |  | > 30 µM | 
3 | Cc1nc(-c2ccc(N)cn2)nc(O)c1C |  | > 30 µM | 
4 | CCc1c(C)nc(-c2ccc(N)cn2)nc1O |  | > 30 µM | 
5 | Nc1ccc(-c2nc(O)cc(C(F)(F)F)n2)nc1 |  | > 30 µM | 
6 | C=CCOc1cc(C(F)(F)F)nc(-c2ccc(N)cn2)n1 |  | > 30 µM | 
7 | CCOc1cc(C(F)(F)F)nc(-c2ccc(N)cn2)n1 |  | > 30 µM | 
8 | C=CCOc1nc(-c2ccc(N)cn2)nc(C)c1CC |  | > 30 µM | 
9 | Nc1ccc(-c2nc(O)cc(CCl)n2)nc1 | 22 µM | 6 µM | 
10 | Cc1nc(-c2ccc(N)cn2)nc(O)c1Cc1ccccc1 |  | > 30 µM | 
11 | C=CCOc1nc(-c2ccc(N)cn2)nc(C)c1Cl |  | > 30 µM | 
12 | O=C(Nc1ccc(-c2nc(O)cc(C(F)(F)F)n2)nc1)C(F)(F)Cl |  | > 30 µM | 
13 | Cc1nc(-c2ccc(N)cn2)nc(O)c1Cl |  | > 30 µM | 
14 | Cc1nc(-c2ccc(N)cn2)nc(O)c1F |  | > 30 µM | 
15 | CC[C@@]1(O)C(=O)OCc2c1cc1n(c2=O)Cc2cc3c(CN(C)C)c(O)ccc3nc2-1 [TOPOTECAN] |  |  | IC50 [3]: 1200 nM; IC50 [4]: 1000 nM; IC50 [15]: 500 nM

Further lines, with some results ahead:

Row | IC50 [1] | IC50 [2] | Structure (SMILES) | also measured
16 | 6 µM | 2 µM | Cc1nc(-c2ccc(NC(=O)CCl)cn2)[nH]c(=O)c1F | 
17 | 10 µM | 1.4 µM | O=C(CCl)Nc1ccc(-c2nc(Cl)cc(C(F)(F)F)n2)nc1 | 
18 | 8 µM | 1.5 µM | C=CCOc1nc(-c2ccc(NC(=O)CCl)cn2)nc(C)c1Cl | 
19 | 10 µM | 4 µM | Cc1nc(-c2ccc(NC(=O)CCl)cn2)nc(O)c1Cc1ccccc1 | 
20 |  | > 30 µM | Cc1nc(-c2ccc(NC(=O)CCl)cn2)nc(O)c1C | 
21 | 8 µM | 0.8 µM | O=C(CCl)Nc1ccc(-c2nc(O)cc(C(F)(F)F)n2)nc1 | IC50 [3]: 1200 nM; IC50 [4]: 1000 nM; inhibition [5]: Dose-dependent effect; inhibition [6]: Dose-dependent effect; IC50 [7]: 2000 nM; growth inhibition (GI) [8]: Active; inhibition [9]: Dose-dependent effect; IC50 [10]: 800 nM; IC50 [11]: 6.5 µM; Activity [12]: Non-toxic; IC50 [13]: > 10 µM; IC50 [14]: 3.5 µM; IC50 [15]: 1500 nM; inhibition [16]: Dose-dependent effect
22 | 15 µM | 3.5 µM | COc1cc(C(F)(F)F)nc(-c2ccc(NC(=O)CCl)cn2)n1 | 
23 | 5.5 µM | 1.5 µM | O=C(CCl)Nc1ccc(-c2nc(O)cc(CCl)n2)nc1 | 
24 |  | 8 µM | CCOc1cc(C(F)(F)F)nc(-c2ccc(NC(=O)CCl)cn2)n1 | 
25 | 22 µM | 1.8 µM | C=CCOc1nc(-c2ccc(NC(=O)CCl)cn2)nc(C)c1CC | 
26 | 5.5 µM | 1.5 µM | CCc1c(C)nc(-c2ccc(NC(=O)CCl)cn2)nc1O | 
27 |  | 5.5 µM | Cc1nc(-c2ccc(NC(=O)CCl)cn2)[nH]c(=O)c1Cl | 
